These results are taken from patent publication US6602889B1, “5-heteroaryl substituted indoles” (H. Lundbeck A.S., priority 1998, dated 2003).

For orientation: IC50 means the concentration needed to halve the response being measured. In general, melting point refers to the temperature of the solid-liquid transition.

Data set [1] addresses T1, serotonin S2 (5-HT2A) receptors (Rattus norvegicus, UniProt P14842).
T1 construct: Male Wistar (Mol:Wist) rats (125-250 g) are sacrificed and cortical tissue is dissected and weighed; from tissue; host or cells: rat cortex membranes (male Wistar rats)
Briefly: Inhibition of 3H-ketanserin binding to serotonin S2 (5-HT2A) receptors in rat cortex in vitro. The following applies: 3H-ketanserin 0.5 nM, membranes from rat cortex; read-out: IC50 values in nM, 5-HT2A. On the procedure: Inhibition of ^3H-Ketanserin Binding to Serotonin S2 (5-HT2Å) Receptors in Rat Cortex in vitro
By this method the inhibition by drugs of the binding of ^3H-ketanserin (0.5 nM) to serotonin S2 (5-HT2) receptors in membranes from rat cortex is determined in vitro.
The tissue is homogenized (Ultra Turrax, 10 sec) in 10 mL of ice cold 50 mM tris buffer pH 7.7 (at 25° C.). The centrifuge glassware used in this step has been rinsed by sonication for 10 min in ethanol. The homogenate is centrifuged twice at 20,000 g for 10 min. at 4° C., with rehomogenization of the pellet in 10 mL icecold buffer. The final pellet is homogenized in 250 vol (w/v) icecold buffer.
Incubation tubes (96 deep well titer plate) kept on ice receive […] of ^3H ketanserin (final concentration 0.5 nM).
The binding experiment is initiated by addition of […] of tissue suspension (final tissue content corresponds to 4 mg original tissue) and by placing the 96 deep well titer plate in a 37° C. water bath. All tests are made in triplicates.
After incubation for 30 min, the samples are filtered on a Brandel harvester under vacuum (18 inch. Hg) through printed filter mat B (13 mm). Titerplate and filter are washed 2×10 sec. flow 50 L/h with ice cold buffer.
The printed filter mat with purred labelled tissue are dried for 1 h at 110° C. and hereafter placed in a sample bag with Meltilex B/HS 14.5 g and melted together on the T-tray heat seal.
Specific binding is obtained by subtracting the nonspecific binding in the presence of 1 mM mianserin.
(§1) For determination of the inhibition of binding, five concentrations of drugs covering 3 decades are used.
^3H-ketanserin=(ethylene-^3H)-ketanserin hydrochloride from New England Nuclear, specific activity 60-80 Ci/mmol.

A further data set concerns the target α1-adrenoceptors. Put plainly: Inhibition of 3H-prazosin binding to α1-adrenoceptors in rat brain in vitro. Conditions: 3H-prazosin 0.25 nM, membranes from rat brain. As to the method:
Method and results in Hyttel & Larsen, J. Neurochem.
The tissue is homogenized (Ultra Turrax, 10 se) in 10 mL of ice cold 50 mM tris buffer pH 7.7 (at 25° C.). The homogenate is centrifuged twice at 20,000 g for 10 min at 4° C. with rehomogenization of the pellet in 10 ml icecold buffer. The final pellet is homogenized in 250 vol (w/v) icecold buffer.
The binding experiment is initiated by addition of […] of tissue suspension (final tissue content corresponds to 3 mg original tissue) and by placing the 96 deep well titer plate in a 25 ° C. water bath. All tests are made in triplicates. After incubation for 20 min, the samples are filtered on a Brandel harvester under vacuum (18 inch. Hg) through printed filtermat B (13 mm). Titerplates and filter are washed 1×10 sec flow 50 L/h with ice cold buffer.
The filter mat is dried for 1 h at 110° C. and then placed in a sample bag with Meltilex B/HS (14.5 g) and melted together on the T-Tray heat sealer.
as §1

The target in another data set is T2, dopamine D2 receptors (Rattus norvegicus, UniProt P61169).
T2 construct: Male Wistar (Mol:Wistar) rats (125-250 g) are sacrificed and striatal tissue is dissected and weighed; from tissue; host or cells: rat corpus striatum membranes (male Wistar rats)
T2 sequence (P61169 whole entry): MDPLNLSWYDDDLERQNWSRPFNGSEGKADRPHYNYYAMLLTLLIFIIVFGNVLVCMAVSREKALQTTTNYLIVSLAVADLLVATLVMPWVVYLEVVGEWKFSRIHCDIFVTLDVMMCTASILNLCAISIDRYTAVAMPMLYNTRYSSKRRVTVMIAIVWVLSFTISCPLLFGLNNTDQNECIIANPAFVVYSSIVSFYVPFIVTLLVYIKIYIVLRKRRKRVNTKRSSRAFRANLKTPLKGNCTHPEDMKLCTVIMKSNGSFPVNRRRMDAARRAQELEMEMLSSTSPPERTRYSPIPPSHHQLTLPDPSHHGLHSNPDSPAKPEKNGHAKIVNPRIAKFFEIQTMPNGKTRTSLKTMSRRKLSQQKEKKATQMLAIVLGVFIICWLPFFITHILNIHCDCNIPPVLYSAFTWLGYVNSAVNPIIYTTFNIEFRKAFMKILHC
Put plainly: Inhibition of 3H-spiperone binding to dopamine D2 receptors in rat corpus striatum in vitro. The following applies: 3H-spiperone 0.5 nM, membranes from rat corpus striatum; read-out: IC50 values in nM, D2. As to the method: Inhibition of ^3H-Spiperone Binding to Dopamine D2 Receptors in Rat Corpus Striatum in vitro
By this method, the inhibition by drugs of the binding of ^3H -spiperone (=^3H-spiro-peridol) (0.5 nM) to dopamine D-2 receptors in membranes from rat corpus striatum is determined in vitro. […] Pharmacol. Toxicol. […] This is a test for dopamine D2 receptor binding affinity in vitro.
The tissue is homogenized (Ultra Turrax, 10 sec.) in 10 mL of ice-cold 50 mM K-phosphate buffer pH 7.4 (at 25° C.). The homogenate is centrifuged twice at 20,000 g for 10 min at 4° C. with rehomogenization of the pellet in 10 mL ice-cold buffer. The final pellet is homogenized in 1300 vol (w/v) ice-cold buffer.
The binding experiment is initiated by addition of 100 μl of ^3H-spiperone (final concentration 0.5 nM) and by placing the tubes in a 37° C. water bath. […] The tubes are rinsed with 5 mL ice-cold buffer which are then poured on the filters. Thereafter, the filters are washed with 2×5 mL of buffer. The filters are placed in counting vials and 4 mL of appropriate scintillation fluid (e.g. Picofluor ™15) are added. After shaking for 1 h and storage for 2 hrs in the dark, the content of radioactivity is determined by liquid scintillation counting. Specific binding is obtained by subtracting the nonspecific binding in the presence of 10 μM of 6,7-ADTN.
For determination of the inhibition of binding, five concentrations of drugs covering 3 orders of magnitude are used.
England, specific activity 15-25 Ci/mmol.

Molecules are shown by their SMILES. Structures can show the parent of a compound that is named as a salt.

T1 sequence (P14842 whole entry): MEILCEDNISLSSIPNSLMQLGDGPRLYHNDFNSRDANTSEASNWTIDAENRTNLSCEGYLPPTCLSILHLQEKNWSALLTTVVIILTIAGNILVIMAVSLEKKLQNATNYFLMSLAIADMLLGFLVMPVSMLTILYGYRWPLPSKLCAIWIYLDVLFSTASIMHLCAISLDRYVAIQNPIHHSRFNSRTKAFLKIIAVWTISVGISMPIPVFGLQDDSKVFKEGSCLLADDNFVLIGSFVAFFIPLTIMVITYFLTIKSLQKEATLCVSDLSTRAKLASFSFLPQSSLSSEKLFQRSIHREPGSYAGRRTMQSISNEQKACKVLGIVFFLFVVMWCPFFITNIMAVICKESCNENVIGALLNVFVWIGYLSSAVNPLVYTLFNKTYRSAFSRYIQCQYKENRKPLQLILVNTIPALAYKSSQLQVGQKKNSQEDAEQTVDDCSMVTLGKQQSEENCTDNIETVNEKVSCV

Regarding `CN1CCC(c2cn(-c3ccc(F)cc3)c3ccc(-c4nnn(C)n4)cc23)CC1` [Compound 23b, 1-(4-fluorophenyl)-3-(1-methyl-4-piperidinyl)-5-(2-methyltetrazol-5-yl)-1H-indole], the IC50 in data set [1] is more than 100 nM; on α1-adrenoceptors, 7.1 nM; at dopamine D2 receptors it was more than 100 nM.

For `Cn1nnc(CCN2CC=C(c3cn(-c4ccc(F)cc4)c4ccc(-c5nnn(C)n5)cc34)CC2)n1` [Compound 17a, 1-(4-Fluorophenyl)-5-(2-methyltetrazol-5-yl)-3-[1-[2-(2-methyltetrazo-5-yl)ethyl]-1,2,3,6-tetrahydropyridin-4-yl]-1H-indole], the values for the IC50 (in data set [1]; at α1-adrenoceptors; at dopamine D2 receptors) were 70 nM, 4 nM and 20 nM, respectively.

In turn, `Cn1nnnc1Cc1ccc2c(c1)c(C1CCN(CCN3CCNC3=O)CC1)cn2-c1ccc(F)cc1` (as salt: fumarate) [Compound 23c, 1-[2-[4-[(-(4-fluorophenyl)-5-[(1-methyltetrazol-5-yl)methyl]-1H-indol-3-yl]-1-piperidinyl]ethyl]-2-imidazolidinone 2.5 fumarate] returned a melting point of 169 to 171 °C.

Consider `Cn1nnc(Cc2ccc3c(c2)c(C2=CCN(CCN4CCNC4=O)CC2)cn3-c2ccc(F)cc2)n1` [Compound 22e, 1-[2-[4-[1-(4-fluorophenyl)-5-[(2-methyltetrazol-5-yl)methyl]-1H-indol-3-yl]-1,2,3,6-tetrahydropyridin-1-yl]ethyl]-2-imidazolidinone], for which the melting point lay within 129 to 131 °C. For the same compound, the IC50 in data set [1] was determined as 5 nM. In addition, the IC50 on α1-adrenoceptors was 1.5 nM. The IC50 on dopamine D2 receptors was 8.6 nM.

As to `CCn1nnc(-c2ccc3c(c2)c(C2=CCN(CCN4CCNC4=O)CC2)cn3-c2ccc(F)cc2)n1` [Compound 22c], the melting point was in the range of 179 to 181 °C. Moreover, in data set [1], the IC50 was more than 100 nM. The same compound yielded an IC50 at α1-adrenoceptors of 7.8 nM. For the same compound, the IC50 at dopamine D2 receptors was 110 nM.

As for `Cn1nnc(-c2ccc3c(c2)c(C2=CCN(CCN4CCNC4=O)CC2)cn3-c2ccncc2)n1` [Compound 5a, 1-[2-[4-[5-(2-Methyltetrazol-5-yl)-1-(4-pyridyl)-1H-indol-3-yl]-1,2,3,6-tetrahydro-1-pyridinyl]ethyl]-2-imidazolidinone], the melting point lay within 177 to 178 °C. Moreover, the IC50 in data set [1] is more than 100 nM. For the same compound, at α1-adrenoceptors, the half-maximal inhibitory concentration (IC50) amounted to 12 nM. The IC50 at dopamine D2 receptors was more than 100 nM.

Consider `Cn1nnc(-c2ccc3c(c2)c(C2=CCN(CCN4CCNC4=O)CC2)cn3-c2ccc(F)cc2)n1` [Compound 22a, 1-[2-[4-[1-(4-Fluorophenyl)-5-(2-methyltetrazol-5-yl)-1H-indol-3-yl]-1,2,3,6-tetrahydropyridin-1-yl]ethyl]-2-imidazolidinone], for which the IC50 in data set [1] worked out at 210 nM; at α1-adrenoceptors, 1.5 nM; at dopamine D2 receptors, 37 nM.

As to `CCn1ncc(-c2ccc3c(c2)c(C2=CCN(CCN4CCNC4=O)CC2)cn3-c2ccc(F)cc2)n1` [Compound 22i, 1-[2-[4-[5-(2-ethyltriazol-4-yl)-1-(4-fluorophenyl)-1H-indol-3-yl]-1,2,3,6-tetrahydropyridin-1-yl]ethyl]-2-imidazolidinone], the melting point was 143 to 145 °C. Besides, in data set [1], the IC50 was determined as 22 nM. Moreover, the IC50 on dopamine D2 receptors came to 51 nM.

In turn, `Cn1nnc(-c2ccc3c(c2)c(C2CCN(CCN4CCNC4=O)CC2)cn3-c2ccncc2)n1` [Compound 6a, 1-[2-[4-[5-(2-Methyltetrazol-5-yl)-1-(4-pyridyl)-1H-indol-3-yl]-1-piperidinyl]ethyl]-2-imidazolidinone] came in with a melting point of 204 to 206 °C. Besides, the IC50 in data set [1] was more than 100 nM. At α1-adrenoceptors, this compound showed an IC50 of 18 nM. For the same compound, the IC50 at dopamine D2 receptors is more than 100 nM.

In the case of `Cn1nnc(-c2ccc3c(c2)c(C2=CCN(CCc4nnnn4C)CC2)cn3-c2ccc(F)cc2)n1` [Compound 17b, 1-(4-Fluorophenyl)-5-(2-methyltetrazol-5-yl)-3-[1-[2-(1-methyltetrazol-5-yl)ethyl]-1,2,3,6-tetrahydropyridin-4-yl]-1H-indole, fumarate], the IC50 in data set [1] came out at 450 nM; at α1-adrenoceptors, 4.9 nM; at dopamine D2 receptors, 97 nM.

In turn, `CCn1nnc(-c2ccc3c(c2)c(C2CCN(CCN4CCNC4=O)CC2)cn3-c2ccc(F)cc2)n1.Cl.Cl` [Compound 23a, 1-[2-[4-[5-(2-ethyltetrazol-5-yl)-1-(4-fluorophenyl)-1H-indol-3-yl]-1-piperidinyl]ethyl]-2-imidazolidinone dihydrochloride] gave a melting point of 172 to 174 °C. The IC50 in data set [1] amounted to 53 nM. At α1-adrenoceptors, this compound displayed an IC50 of 6.1 nM. In addition, the IC50 on dopamine D2 receptors was more than 100 nM.

Consider `Cn1nnnc1Cc1ccc2c(c1)c(C1=CCN(CCN3CCNC3=O)CC1)cn2-c1ccc(F)cc1` [Compound 22d, 1-[2-[4-[1-(4-fluorophenyl)-5-[(1-methyltetrazol-5-yl)methyl]-1H-indol-3-yl]-1,2,3,6-tetrahydropyridin-1-yl]ethyl]-2-imidazolidinone], for which the melting point is 174 to 176 °C. Also, the IC50 in data set [1] was 18 nM. The compound further yielded an IC50 on α1-adrenoceptors of 0.72 nM. Besides, the IC50 on dopamine D2 receptors was 5 nM.

Compound `Cn1nnnc1-c1ccc2c(c1)c(C1=CCN(CCN3CCNC3=O)CC1)cn2-c1ccc(F)cc1` [Compound 22b, 1-[2-[4-[1-(4-fluorophenyl)-5-(1-methyltetrazol-5-yl)-1H-indol-3-yl]-1,2,3,6-tetrahydropyridin-1-yl]ethyl]-2-imidazolidinone] gave a melting point of 198 to 200 °C. Besides, in data set [1], the IC50 was found to be 38 nM. Further, the IC50 on α1-adrenoceptors turned out to be 0.75 nM. Besides, the IC50 on dopamine D2 receptors amounted to 4.7 nM.

`Cn1ncc(-c2ccc3c(c2)c(C2=CCN(CCN4CCNC4=O)CC2)cn3-c2ccc(F)cc2)n1` [Compound 22g, 1-[2-[4-[1-(4-fluorophenyl)-5-(2-methyltriazol-4-yl)-1H-indol-3-yl]-1,2,3,6-tetrahydropyridin-1-yl]ethyl]-2-imidazolidinone] returned a melting point of 175 to 177 °C. The IC50 in data set [1] stood at 94 nM. For the same compound, the IC50 at dopamine D2 receptors amounted to 28 nM.

With `O=C1NCCN1CCN1CCC(c2cn(-c3ccc(F)cc3)c3ccc(Cl)cc23)CC1` [Sertindole, sertindole, reference compound], the IC50 on α1-adrenoceptors amounted to 3.4 nM.

Take `COc1cc2nc(N3CCN(C(=O)c4ccco4)CC3)nc(N)c2cc1OC` [Prazosin, prazosin, reference compound]: the IC50 is 0.36 nM on α1-adrenoceptors and 11000 nM on dopamine D2 receptors.

For `Cn1nnnc1Cc1ccc2c(c1)c(C1CCN(CCN3CCNC3=O)CC1)cn2-c1ccc(F)cc1` [Compound 23c, 1-[2-[4-[(-(4-fluorophenyl)-5-[(1-methyltetrazol-5-yl)methyl]-1H-indol-3-yl]-1-piperidinyl]ethyl]-2-imidazolidinone 2.5 fumarate], the values for the half-maximal inhibitory concentration (IC50) (in data set [1]; at α1-adrenoceptors; at dopamine D2 receptors) were 8.3 nM, 0.5 nM and 3.7 nM, respectively.
